Legend:
[1] = Mixed-type inhibition of rat liver thioredoxin reductase using DTNB as substrate measured for 50 mins at 5 mins intervals in presence of NADPH by Lineweaver-Burk plot analysis
MDA-MB-231 = experiment: Growth inhibition of human MDA-MB-231/ATCC cells incubated for 48 hrs by sulforhodamine B assay; type: functional; conditions: MDA-MB-231, 48 h
[2] = Growth inhibition of human TK10 cells incubated for 48 hrs by sulforhodamine B assay; type: functional; conditions: TK-10, 48 h
MDA-MB-435 = experiment: Growth inhibition of human MDA-MB-435 cells incubated for 48 hrs by sulforhodamine B assay; type: functional; conditions: MDA-MB-435, 48 h
[3] = Growth inhibition of human UACC62 cells incubated for 48 hrs by sulforhodamine B assay; type: functional; conditions: UACC-62, 48 h
NCI-H23 = experiment: Growth inhibition of human NCI-H23 cells incubated for 48 hrs by sulforhodamine B assay; type: functional; conditions: NCI-H23, 48 h
SR = experiment: Growth inhibition of human SR cells incubated for 48 hrs by sulforhodamine B assay; type: functional
[4] = Growth inhibition of human OVCAR5 cells incubated for 48 hrs by sulforhodamine B assay; type: functional; conditions: OVCAR-5, 48 h
A498 = experiment: Growth inhibition of human A498 cells incubated for 48 hrs by sulforhodamine B assay; type: functional; conditions: A498, 48 h
EKVX [5] = experiment: Growth inhibition of human EKVX cells incubated for 48 hrs by sulforhodamine B assay; type: functional
HT-29 = experiment: Growth inhibition of human HT-29 cells incubated for 48 hrs by sulforhodamine B assay; type: functional; conditions: HT-29, 48 h
[6] = Growth inhibition of human Caki1 cells incubated for 48 hrs by sulforhodamine B assay; type: functional; conditions: CAKI-1, 48 h
[7] = Growth inhibition of human SF268 cells incubated for 48 hrs by sulforhodamine B assay; type: functional; conditions: SF-268, 48 h
NCI/ADR-RES = experiment: Growth inhibition of human NCI/ADR-RES cells incubated for 48 hrs by sulforhodamine B assay; type: functional
EKVX [8] = experiment: Growth inhibition of human EKVX cells assessed as cell growth at 10 uM incubated for 48 hrs by sulforhodamine B assay relative to control; type: functional; conditions: read-out: Activity
[9] = Growth inhibition of human OVCAR8 cells incubated for 48 hrs by sulforhodamine B assay; type: functional; conditions: OVCAR-8, 48 h
[10] = Growth inhibition of human SW620 cells incubated for 48 hrs by sulforhodamine B assay; type: functional; conditions: SW-620, 48 h
Malme-3M = experiment: Growth inhibition of human MALME-3M cells incubated for 48 hrs by sulforhodamine B assay; type: functional
[11] = Growth inhibition of human RXF393 cells incubated for 48 hrs by sulforhodamine B assay; type: functional; conditions: RXF 393, 48 h
[12] = Growth inhibition of human UO31 cells incubated for 48 hrs by sulforhodamine B assay; type: functional; conditions: UO-31, 48 h
KM12 = experiment: Growth inhibition of human KM12 cells incubated for 48 hrs by sulforhodamine B assay; type: functional; conditions: KM12, 48 h
[13] = Growth inhibition of human HL-60(TB) cells incubated for 48 hrs by sulforhodamine B assay; type: functional; conditions: HL-60, 48 h
SK-MEL-5 = experiment: Growth inhibition of human SK-MEL-5 cells incubated for 48 hrs by sulforhodamine B assay; type: functional; conditions: SK-MEL-5, 48 h
SK-MEL-28 = experiment: Growth inhibition of human SK-MEL-28 cells incubated for 48 hrs by sulforhodamine B assay; type: functional; conditions: SK-MEL-28, 48 h
[14] = Growth inhibition of human OVCAR4 cells incubated for 48 hrs by sulforhodamine B assay; type: functional; conditions: OVCAR-4, 48 h
[15] = Growth inhibition of human PC3 cells incubated for 48 hrs by sulforhodamine B assay; type: functional; conditions: PC-3, 48 h
[16] = Growth inhibition of human HOP92 cells incubated for 48 hrs by sulforhodamine B assay; type: functional; conditions: HOP-92, 48 h
[17] = Growth inhibition of human SKOV3 cells incubated for 48 hrs by sulforhodamine B assay; type: functional; conditions: SK-OV-3, 48 h
[18] = Growth inhibition of human COLO205 cells incubated for 48 hrs by sulforhodamine B assay; type: functional; conditions: COLO 205, 48 h
NCI-H460 = experiment: Growth inhibition of human NCI-H460 cells incubated for 48 hrs by sulforhodamine B assay; type: functional; conditions: NCI-H460, 48 h
SK-MEL-2 = experiment: Growth inhibition of human SK-MEL-2 cells incubated for 48 hrs by sulforhodamine B assay; type: functional; conditions: SK-MEL-2, 48 h
[19] = Growth inhibition of human IGROV1 cells incubated for 48 hrs by sulforhodamine B assay; type: functional; conditions: IGROV-1, 48 h
[20] = Selectivity ratio of IC50 for human GM00637 cells to IC50 for human DU145 cells; type: ADME, cell-based; conditions: GM00637 cells versus DU145 cells, read-out: Ratio IC50
[21] = read-out: pLC50 (the source's name) (converted)

Which Ki [1] does the source give for O=c1ccc2nc(-c3ccccc3)nn(-c3ccccc3)c-2c1 here?
Its Ki is 3.9 µM.

Which results are given for O=c1ccc2nc(C(F)(F)F)nn(-c3ccccc3)c-2c1?
GI50 (MDA-MB-231): 1.91 µM; CC50 (MDA-MB-231; [21]): 26.9 µM; TGI (MDA-MB-231; read-out: pTGI (converted)): 5.62 µM; GI50 [2]: 1.62 µM; CC50 [2, 21]: 5.89 µM; TGI ([2]; read-out: pTGI (converted)): 3.09 µM; GI50 (MDA-MB-435): 4.57 µM; CC50 (MDA-MB-435; [21]): 40.7 µM; TGI (MDA-MB-435; read-out: pTGI (converted)): 16.6 µM; GI50 [3]: 5.13 µM; CC50 [3, 21]: 43.7 µM; TGI ([3]; read-out: pTGI (converted)): 17.8 µM; GI50 (NCI-H23): 5.89 µM; CC50 (NCI-H23; [21]): 66.1 µM; TGI (NCI-H23; read-out: pTGI (converted)): 22.4 µM; GI50 (SR): 1 µM; CC50 (SR; [21]): > 100 µM; TGI (SR; read-out: pTGI): > 100 µM; GI50 [4]: 15.5 µM; CC50 [4, 21]: 55 µM; TGI ([4]; read-out: pTGI (converted)): 28.8 µM; GI50 (A498): 14.1 µM; CC50 (A498; [21]): 52.5 µM; TGI (A498; read-out: pTGI (converted)): 26.9 µM; GI50 (EKVX [5]): 26.9 µM; CC50 (EKVX [5]; [21]): 53.7 µM; TGI (EKVX [5]; read-out: pTGI (converted)): 26.9 µM; GI50 (HT-29): 2.63 µM; CC50 (HT-29; [21]): > 100 µM; GI50 [6]: 1.48 µM; CC50 [6, 21]: 5.37 µM; TGI ([6]; read-out: pTGI (converted)): 2.82 µM; GI50 [7]: 15.1 µM; CC50 [7, 21]: 56.2 µM; TGI ([7]; read-out: pTGI (converted)): 28.8 µM; GI50 (NCI/ADR-RES): 53.7 µM; CC50 (NCI/ADR-RES; [21]): > 100 µM; TGI (NCI/ADR-RES; read-out: pTGI (converted)): 64.6 µM; growth at 10 µM (EKVX [8]): 95.8%; GI50 [9]: 4.17 µM; CC50 [9, 21]: > 100 µM; TGI ([9]; read-out: pTGI (converted)): 33.9 µM; GI50 [10]: 1.74 µM; CC50 [10, 21]: 7.94 µM; TGI ([10]; read-out: pTGI (converted)): 3.72 µM; GI50 (Malme-3M): 1.82 µM; CC50 (Malme-3M; [21]): 6.03 µM; TGI (Malme-3M; read-out: pTGI (converted)): 3.31 µM; GI50 [11]: 1.45 µM; CC50 [11, 21]: 5.37 µM; TGI ([11]; read-out: pTGI (converted)): 2.82 µM; GI50 [12]: 1.48 µM; CC50 [12, 21]: 5.62 µM; TGI ([12]; read-out: pTGI (converted)): 2.88 µM; GI50 (KM12): 19.5 µM; CC50 (KM12; [21]): 70.8 µM; TGI (KM12; read-out: pTGI (converted)): 37.2 µM; GI50 [13]: 1.2 µM; CC50 [13, 21]: > 100 µM; TGI ([13]; read-out: pTGI (converted)): 4.27 µM; GI50 (SK-MEL-5): 7.76 µM; CC50 (SK-MEL-5; [21]): 47.9 µM; TGI (SK-MEL-5; read-out: pTGI (converted)): 20.9 µM; GI50 (SK-MEL-28): 1.7 µM; CC50 (SK-MEL-28; [21]): 6.31 µM; TGI (SK-MEL-28; read-out: pTGI (converted)): 3.24 µM; GI50 [14]: 1.48 µM; CC50 [14, 21]: 5.37 µM; TGI ([14]; read-out: pTGI (converted)): 2.82 µM; GI50 [15]: 10.7 µM; CC50 [15, 21]: 52.5 µM; TGI ([15]; read-out: pTGI (converted)): 23.4 µM; GI50 [16]: 1.38 µM; CC50 [16, 21]: 6.17 µM; TGI ([16]; read-out: pTGI (converted)): 2.95 µM; GI50 [17]: 15.1 µM; CC50 [17, 21]: > 100 µM; TGI ([17]; read-out: pTGI): > 100 µM; GI50 [18]: 2.29 µM; CC50 [18, 21]: > 100 µM; TGI ([18]; read-out: pTGI (converted)): 5.75 µM; GI50 (NCI-H460): 17.8 µM; CC50 (NCI-H460; [21]): 74.1 µM; TGI (NCI-H460; read-out: pTGI (converted)): 36.3 µM; GI50 (SK-MEL-2): 3.63 µM; CC50 (SK-MEL-2; [21]): 58.9 µM; TGI (SK-MEL-2; read-out: pTGI (converted)): 15.5 µM; GI50 [19]: 12 µM; CC50 [19, 21]: 55 µM; TGI ([19]; read-out: pTGI (converted)): 25.7 µM; selectivity ratio [20]: 2

Reference: ChEMBL document CHEMBL3813672, “Discovery of anti-cancer activity for benzo[1,2,4]triazin-7-ones: Very strong correlation to pleurotin and thioredoxin reductase inhibition” (Bioorg Med Chem, 2016)
